{"source": "paper PMC6271858", "about": "“Identification of Natural Compound Carnosol as a Novel TRPA1 Receptor Agonist” (Molecules, 2014)", "key": {"human TRPA1": {"biological_target": "human TRPA1 (Homo sapiens, UniProt O75762)", "sequence (O75762 whole entry)": "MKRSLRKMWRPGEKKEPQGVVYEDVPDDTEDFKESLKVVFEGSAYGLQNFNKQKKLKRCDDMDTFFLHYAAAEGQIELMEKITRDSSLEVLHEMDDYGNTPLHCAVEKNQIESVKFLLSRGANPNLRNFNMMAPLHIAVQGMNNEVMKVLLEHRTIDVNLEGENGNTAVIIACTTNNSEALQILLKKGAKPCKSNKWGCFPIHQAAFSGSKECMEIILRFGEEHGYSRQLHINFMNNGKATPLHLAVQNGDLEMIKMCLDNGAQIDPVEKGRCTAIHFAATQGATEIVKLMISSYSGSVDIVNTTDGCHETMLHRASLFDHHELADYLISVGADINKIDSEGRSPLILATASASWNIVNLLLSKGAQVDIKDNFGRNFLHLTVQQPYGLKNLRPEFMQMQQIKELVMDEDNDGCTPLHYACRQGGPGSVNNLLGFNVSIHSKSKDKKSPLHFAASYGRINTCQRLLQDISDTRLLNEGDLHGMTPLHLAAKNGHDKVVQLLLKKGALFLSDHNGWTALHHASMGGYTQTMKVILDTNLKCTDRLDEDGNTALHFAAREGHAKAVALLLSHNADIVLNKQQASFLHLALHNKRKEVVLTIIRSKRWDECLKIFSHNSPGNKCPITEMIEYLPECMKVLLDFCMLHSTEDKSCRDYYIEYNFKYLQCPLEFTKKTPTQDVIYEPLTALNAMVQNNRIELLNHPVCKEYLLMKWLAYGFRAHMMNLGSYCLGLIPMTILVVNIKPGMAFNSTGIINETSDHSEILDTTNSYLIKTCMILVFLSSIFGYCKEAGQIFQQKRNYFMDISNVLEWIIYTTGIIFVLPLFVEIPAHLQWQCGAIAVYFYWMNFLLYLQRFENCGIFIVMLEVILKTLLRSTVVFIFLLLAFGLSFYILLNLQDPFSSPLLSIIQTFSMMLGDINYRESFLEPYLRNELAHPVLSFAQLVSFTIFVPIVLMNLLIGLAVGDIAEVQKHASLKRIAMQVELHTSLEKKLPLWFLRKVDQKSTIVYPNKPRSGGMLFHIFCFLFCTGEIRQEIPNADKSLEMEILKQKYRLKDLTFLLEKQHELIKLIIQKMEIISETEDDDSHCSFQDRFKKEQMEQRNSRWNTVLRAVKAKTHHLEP", "assay": "Calcium mobilization agonist assay in HEK293/TRPA1 cells", "assay_type": "cell-based", "conditions": "for EC80 value: agonist concentration used to evoke the antagonist assay", "protocol": "HEK293/TRPA1 cells were seeded at a density of 3.5 × 10^4 per well into 96-well clear-bottom black plates coated with matrigel and incubated in 5% CO2 at 37 °C overnight. On the day of assay, the growth medium was replaced by 100 µL loading buffer containing a final concentration of 4 μM Ca^2+-sensitive dye Fluo-4 AM and 2 mM acid red 1 in HBSS. The plate was then incubated at 37 °C in dark for 30 min before calcium signal read out. For antagonists study, 80 µL loading buffer was added into each well and 20 µL HBSS containing tested compound was added 10 min prior to calcium-flux measurement.\nCells were transferred to a Flexstation II (Molecular Devices) for experimentation. Basal fluorescence was recorded for 16 s before agonist application. The integrated Flexstation II fluidics system added 25 µL compound (5× solution) from the agonist compound plate to the assay plate containing 100 µL loading buffer solution. Relative fluorescence units (RFU) were read by FlexStation II at 37 °C with an excitation wavelength of 485 nm and an emission wavelength of 525 nm. The fluorescence intensity was read every 1.52 s for 80 s.\nNinety µM CA and 0.25% DMSO were used as the positive and negative control respectively during primary screening of TRPA1 agonist. Hits above the cutoff value (50%) were picked for retesting, percentage of increased calcium signal was calculated as following equation: (2) Activity%=RFUcompound−RFUnegative/RFUpositive−RFUnegative×100"}, "HEK293 host cells": {"test_system": "HEK293 host cells", "assay": "Compound specificity assay, calcium influx in HEK293 host cells", "assay_type": "cell-based, human", "conditions": "compared with 0.25% DMSO group; positive control 5 μM ATP", "protocol": "To observe whether the identified compounds induce calcium influx in HEK293 host cells, the cells were treated with various concentrations of tested compounds. Meanwhile, 5 μM ATP and 0.25% DMSO were used as the positive and negative control, respectively. The regulatory activity of tested samples was defined as follows: (3) Activity%=RFUcompound/RFUpositive×100"}, "TRPM8": {"biological_target": "TRPM8 (Homo sapiens, UniProt Q7Z2W7)", "sequence (Q7Z2W7 whole entry)": "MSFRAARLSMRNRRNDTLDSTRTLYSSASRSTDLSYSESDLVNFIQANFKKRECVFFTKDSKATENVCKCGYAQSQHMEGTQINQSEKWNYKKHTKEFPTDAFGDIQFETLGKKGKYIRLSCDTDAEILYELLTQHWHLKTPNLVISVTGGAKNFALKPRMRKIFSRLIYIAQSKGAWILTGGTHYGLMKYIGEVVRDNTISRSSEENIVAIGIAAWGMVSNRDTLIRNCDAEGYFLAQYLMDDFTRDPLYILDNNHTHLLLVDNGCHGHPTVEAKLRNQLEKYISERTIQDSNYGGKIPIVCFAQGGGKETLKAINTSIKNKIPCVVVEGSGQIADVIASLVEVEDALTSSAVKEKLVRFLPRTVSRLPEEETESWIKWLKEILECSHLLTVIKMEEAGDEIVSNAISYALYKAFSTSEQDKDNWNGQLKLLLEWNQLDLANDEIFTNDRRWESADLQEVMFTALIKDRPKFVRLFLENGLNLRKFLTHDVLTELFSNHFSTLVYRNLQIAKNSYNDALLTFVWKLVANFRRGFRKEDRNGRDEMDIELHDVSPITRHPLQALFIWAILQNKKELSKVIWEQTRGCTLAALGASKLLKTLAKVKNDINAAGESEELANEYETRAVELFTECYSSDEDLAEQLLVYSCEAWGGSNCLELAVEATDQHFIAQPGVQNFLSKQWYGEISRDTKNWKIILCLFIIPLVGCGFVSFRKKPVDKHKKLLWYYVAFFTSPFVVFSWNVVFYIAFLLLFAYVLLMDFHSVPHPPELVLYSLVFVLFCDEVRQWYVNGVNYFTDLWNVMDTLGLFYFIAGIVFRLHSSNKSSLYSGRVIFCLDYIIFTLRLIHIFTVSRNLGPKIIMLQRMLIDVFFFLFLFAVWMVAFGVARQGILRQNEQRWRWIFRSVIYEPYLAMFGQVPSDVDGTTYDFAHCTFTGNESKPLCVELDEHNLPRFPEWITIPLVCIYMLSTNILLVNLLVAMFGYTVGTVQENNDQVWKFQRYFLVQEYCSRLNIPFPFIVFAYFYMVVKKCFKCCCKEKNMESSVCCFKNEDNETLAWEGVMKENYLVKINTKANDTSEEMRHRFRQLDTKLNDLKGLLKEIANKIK", "assay": "Compound selectivity calcium mobilization assay in HEK293/TRPM8 cells", "assay_type": "cell-based", "protocol": "HEK 293 cell lines stably expressing human TRPA1, TRPM8 and TRPV3 channels, respectively, were established by HD Bioscience Co. Ltd (SH, China) according to the cell line generation procedure in published articles of our laboratory. All HEK293 cell lines used in this study were routinely maintained in DMEM containing 10% FBS, 100 U/mL penicillin, and 100 μg/mL streptomycin in a humidified atmosphere of 5% CO2 at 37 °C. HEK293/TRPA1, HEK293/TRPM8 and HEK293/TRPV3 cells were incubated with complete culture medium along with 50 μg/mL hygromycin B.\n(§1) To study the specificity of the action target of identified compounds, the activating effect on TRPM8 and TRPV3 was tested. HEK293 cell lines stably expressing TRPM8 and TRPV3 receptors were separately stimulated by a serious concentrations of identified compounds using calcium mobilization assay as described above."}, "TRPV3": {"biological_target": "T1, TRPV3 (Homo sapiens, UniProt Q8NET8)", "T1 sequence (Q8NET8 1-790)": "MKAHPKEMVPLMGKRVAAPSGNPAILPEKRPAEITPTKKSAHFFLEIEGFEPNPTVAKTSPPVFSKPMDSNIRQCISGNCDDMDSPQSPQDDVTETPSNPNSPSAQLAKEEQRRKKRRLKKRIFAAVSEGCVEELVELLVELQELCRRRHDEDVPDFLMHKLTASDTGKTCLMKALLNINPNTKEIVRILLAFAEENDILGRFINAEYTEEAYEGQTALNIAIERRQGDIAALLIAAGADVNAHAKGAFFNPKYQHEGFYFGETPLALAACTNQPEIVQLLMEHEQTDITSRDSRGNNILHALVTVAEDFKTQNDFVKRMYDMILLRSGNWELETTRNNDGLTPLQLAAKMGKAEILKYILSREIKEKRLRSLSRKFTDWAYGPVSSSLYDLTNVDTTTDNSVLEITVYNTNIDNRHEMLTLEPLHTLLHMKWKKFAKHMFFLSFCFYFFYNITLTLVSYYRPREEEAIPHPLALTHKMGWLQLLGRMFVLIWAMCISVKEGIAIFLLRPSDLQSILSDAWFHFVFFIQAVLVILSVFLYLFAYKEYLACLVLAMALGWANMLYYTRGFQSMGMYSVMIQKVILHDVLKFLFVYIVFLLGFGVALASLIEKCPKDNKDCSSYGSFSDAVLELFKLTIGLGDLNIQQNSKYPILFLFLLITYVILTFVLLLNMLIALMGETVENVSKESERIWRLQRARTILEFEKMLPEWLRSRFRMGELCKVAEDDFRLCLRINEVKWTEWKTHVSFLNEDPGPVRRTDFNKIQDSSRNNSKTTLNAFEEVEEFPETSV", "assay": "Compound selectivity calcium mobilization assay in HEK293/TRPV3 cells", "assay_type": "cell-based", "conditions": "series of concentrations", "protocol": "All HEK293 cell lines used in this study were routinely maintained in DMEM containing 10% FBS, 100 U/mL penicillin, and 100 μg/mL streptomycin in a humidified atmosphere of 5% CO2 at 37 °C. HEK293/TRPA1, HEK293/TRPM8 and HEK293/TRPV3 cells were incubated with complete culture medium along with 50 μg/mL hygromycin B.\nas §1"}, "HEK293/TRPA1 cells": {"test_system": "HEK293/TRPA1 cells", "assay": "Compound cytotoxicity assay (CellTiter-Glo, luciferase coupled ATP quantitation)", "assay_type": "cell-based, human", "conditions": "2 h incubation, compared to the control group", "protocol": "HEK293/TRPA1 cells were seeded at 3.5 × 10^4 per well into 96-well clear-bottom black plates and incubated in 5% CO2 at 37 °C overnight. Different concentrations of the compound were added into the 96-well plates and incubated in 5% CO2 at 37 °C for 2 h. Luminescence was read by Envision 2100 multilabel reader to detect cells’ viability following incubation with CellTiter-Glo reagent for 10 min."}}, "note": "pEC50: −log10 of the molar value. Entries after “also recorded” stand apart in the source; their conditions may differ. Read-outs that look alike come from different tables or passages of the source."}
{"smiles": "C[C@H]1[C@H](C)CC[C@]2(C(=O)O)CC[C@]3(C)C(=CC[C@@H]4[C@@]5(C)CC[C@H](O)C(C)(C)[C@@H]5CC[C@]43C)[C@H]12", "note": "[ursolic acid, Ursolic acid]", "values": [{"measurement": "Calcium signal in HEK293/TRPA1 cell line", "setting": "human TRPA1; up to 90 µM", "value": "no significant calcium signal"}]}
{"smiles": "CC(C)c1cc2c(c(O)c1O)[C@@]13CCCC(C)(C)[C@@H]1C[C@@H]2OC3=O", "note": "[carnosol, Carnosol]", "values": [{"measurement": "Calcium signal in primary screening", "setting": "human TRPA1; 10 μM, HEK293/TRPA1 cells, positive control 90 µM CA, negative control 0.25% DMSO", "value": "showed significant difference compared with the negative control; also recorded: comparable to the positive control"}, {"measurement": "EC80 value", "setting": "human TRPA1; HEK293/TRPA1 cells", "value": 30, "unit": "µM"}, {"measurement": "pEC50", "setting": "human TRPA1; HEK293/TRPA1 cells, calcium mobilization, agonist concentration-response, read-out: EC50", "value": 4.90}, {"measurement": "Calcium signal in HEK293 host cells", "setting": "HEK293 host cells", "value": "no significant difference"}, {"measurement": "Stimulation signal in HEK/TRPM8 cell line", "setting": "TRPM8; series of concentrations, calcium mobilization", "value": "no stimulation signal"}, {"measurement": "Stimulation signal in HEK/TRPV3 cell line", "setting": "TRPV3", "value": "no stimulation signal"}, {"measurement": "Cytotoxicity on HEK293/TRPA1 cells", "setting": "HEK293/TRPA1 cells", "value": "no significant cytotoxicity"}]}
{"smiles": "O=C/C=C/c1ccccc1", "note": "[CA, cinnamaldehyde, reference compound]", "values": [{"measurement": "pEC50", "setting": "human TRPA1", "value": 4.50}, {"measurement": "EC80 value", "setting": "human TRPA1; HEK293/TRPA1 cells", "value": 90, "unit": "µM"}]}
{"smiles": "O=C1NC(c2cccc([N+](=O)[O-])c2)=CCN1c1ccccc1O", "note": "[icilin, Icilin, reference compound]", "values": [{"measurement": "pEC50", "setting": "TRPM8; HEK293/TRPM8 cells, calcium response (data not shown)", "value": 6.77}]}
{"smiles": "CC(C)c1cc2c(c(O)c1O)[C@@]1(C(=O)O)CCCC(C)(C)[C@@H]1CC2", "note": "[carnosic acid, Carnosic acid]", "values": [{"measurement": "Calcium signal in HEK293/TRPA1 cell line", "setting": "human TRPA1; at 90 µM", "value": "caused calcium signal"}, {"measurement": "Calcium signal in HEK293 host cells", "setting": "HEK293 host cells", "value": "acted on HEK293 host cells"}]}
